The values that follow come from patent publication US9315503B2, “Kinase inhibitors” (CHIESI FARMACEUTICI S.p.A., priority 2011, dated 2016).

Assay [1] addresses T1, p38alpha (Homo sapiens, UniProt Q16539).
T1 construct: purchased Invitrogen PV3304
Nature of the assay: P38Alpha enzyme inhibition assay (Alphascreen kinase activity assay). Type of assay: biochemical. The following applies: 100 pM p38alpha, 250 μM ATP, 2 hours pre-incubation at 25° C., read-out: p38α inhibition (IC50 values). In short, it runs like this: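 p38α (100 pM) with ATF-2 fusion protein substrate (0.3 µg/ml) in pH 7.5 HEPES/MgCl2 buffer, 1% DMSO, preincubated 2 h at 25°C with compound. Reaction started with 250 µM ATP, ran 1 h at 25°C, then stopped with EDTA. Phospho-ATF2 antibody detected by AlphaScreen luminescence; IC50 from concentration-response curves.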

The test system of assay [2] is LPS-stimulated TNFα release from PBMCs. Description: LPS-stimulated PBMC TNFα release assay. The settings on record: inhibition of TNFα release, human PBMCs, LPS 10 ng/ml, 18 h, ELISA, read-out: p38α inhibition (IC50 values). Type of assay: cell-based. In short, it runs like this: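 Healthy-donor human PBMCs, density-gradient isolated, preincubated 1 h at 37 °C with compound in 1% FBS RPMI 1640, then stimulated with LPS (10 ng/ml) for 18 h. Supernatant TNFα by ELISA; IC50 from dose-response of % inhibition of control release, n≥3 experiments.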

Counter-ions that a name gives are not always drawn.

T1 sequence (Q16539 whole entry): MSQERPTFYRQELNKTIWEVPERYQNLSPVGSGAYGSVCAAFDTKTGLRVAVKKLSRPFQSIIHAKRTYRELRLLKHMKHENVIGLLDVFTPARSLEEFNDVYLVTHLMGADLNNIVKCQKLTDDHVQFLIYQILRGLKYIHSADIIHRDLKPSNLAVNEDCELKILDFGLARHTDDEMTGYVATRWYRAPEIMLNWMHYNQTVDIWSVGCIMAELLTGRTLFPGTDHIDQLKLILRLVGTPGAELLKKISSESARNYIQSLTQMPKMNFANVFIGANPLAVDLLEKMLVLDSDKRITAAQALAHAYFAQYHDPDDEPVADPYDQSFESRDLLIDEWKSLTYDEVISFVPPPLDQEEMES

Turning to `Cc1ccc(-n2nc(C(C)(C)C)cc2NC(=O)N[C@H]2CC[C@@H](Oc3ccc4nnc(N5CCC(C(C)(C)O)CC5)n4c3)c3ccccc32)cc1` [Example 74, 1-(5-tert-Butyl-2-p-tolyl-2H-pyrazol-3-yl)-3-((1S,4R)-4-{3-[4-(1-hydroxy-1-methyl-ethyl)-piperidin-1-yl]-[1,2,4]triazolo[4,3-a]pyridin-6-yloxy}-1,2,3,4-tetrahydro-naphthalen-1-yl)-urea], the IC50 in assay [1] and in assay [2] was under 10 nM in each case.

Consider `Cc1ccc(-n2nc(C(C)(C)C)cc2NC(=O)N[C@H]2CC[C@@H](Oc3ccc4nnc(N5CCCC5)n4c3)c3ccccc32)cc1` [Example 75, 1-(5-tert-Butyl-2-p-tolyl-2H-pyrazol-3-yl)-3-[(1S,4R)-4-(3-pyrrolidin-1-yl-[1,2,4]triazolo[4,3-a]pyridin-6-yloxy)-1,2,3,4-tetrahydro-naphthalen-1-yl]-urea], for which the IC50 in assay [1] and in assay [2] was under 10 nM throughout.

As to `Cc1ccc(-n2nc(C(C)(C)C)cc2NC(=O)N[C@H]2CC[C@@H](Oc3ccc4nnc(C(C)(C)N(C)C)n4c3)c3ccccc32)cc1` [Example 76, 1-(5-tert-Butyl-2-p-tolyl-2H-pyrazol-3-yl)-3-{(1S,4R)-4-[3-(1-dimethylamino-1-methyl-ethyl)-[1,2,4]triazolo[4,3-a]pyridin-6-yloxy]-1,2,3,4-tetrahydro-naphthalen-1-yl}-urea partial formate salt], the IC50 in assay [1] and in assay [2] was under 10 nM each time.

`Cc1ccc(-n2nc(C(C)(C)C)cc2NC(=O)N[C@H]2CC[C@@H](Oc3ccc4nnc(N5CCC[C@@H](CO)C5)n4c3)c3ccccc32)cc1` [Example 77, 1-(5-tert-Butyl-2-p-tolyl-2H-pyrazol-3-yl)-3-{(1S,4R)-4-[3-((R)-3-hydroxymethyl-piperidin-1-yl)-[1,2,4]triazolo[4,3-a]pyridin-6-yloxy]-1,2,3,4-tetrahydro-naphthalen-1-yl}-urea]: the IC50 in assay [1] and in assay [2] was under 10 nM in each case.

Turning to `Cc1ccc(-n2nc(C(C)(C)C)cc2NC(=O)N[C@H]2CC[C@@H](Oc3ccc4nnc(N5CCC[C@H](CO)C5)n4c3)c3ccccc32)cc1` [Example 78, 1-(5-tert-Butyl-2-p-tolyl-2H-pyrazol-3-yl)-3-{(1S,4R)-4-[3-((S)-3-hydroxymethyl-piperidin-1-yl)-[1,2,4]triazolo[4,3-a]pyridin-6-yloxy]-1,2,3,4-tetrahydro-naphthalen-1-yl}-urea], the IC50 in assay [1] and in assay [2] was under 10 nM each time.

`Cc1ccc(-n2nc(C(C)(C)C)cc2NC(=O)N[C@H]2CC[C@@H](Oc3ccc4nnc(N5CCC(C)(O)CC5)n4c3)c3ccccc32)cc1` [Example 79, 1-(5-tert-Butyl-2-p-tolyl-2H-pyrazol-3-yl)-3-{(1S,4R)-4-[3-(4-hydroxy-4-methyl-piperidin-1-yl)-[1,2,4]triazolo[4,3-a]pyridin-6-yloxy]-1,2,3,4-tetrahydro-naphthalen-1-yl}-urea]: the IC50 in assay [1] and in assay [2] was under 10 nM throughout.

For the molecule `Cc1ccc(-n2nc(C(C)(C)C)cc2NC(=O)N[C@H]2CC[C@@H](Oc3ccc4nnc(C(C)(C)N5CCCC5)n4c3)c3ccccc32)cc1` [Example 80, 1-(5-tert-Butyl-2-p-tolyl-2H-pyrazol-3-yl)-3-{(1S,4R)-4-[3-(1-methyl-1-pyrrolidin-1-yl-ethyl)-[1,2,4]triazolo[4,3-a]pyridin-6-yloxy]-1,2,3,4-tetrahydro-naphthalen-1-yl}-urea], the IC50 in assay [1] and in assay [2] was under 10 nM in each case.

As for `Cc1ccc(-n2nc(C(C)(C)C)cc2NC(=O)N[C@H]2CC[C@@H](Oc3ccc4nnc(N5CCCC[C@@H]5C)n4c3)c3ccccc32)cc1` [Example 81, 1-(5-tert-Butyl-2-p-tolyl-2H-pyrazol-3-yl)-3-{(1S,4R)-4-[3-((S)-2-methyl-piperidin-1-yl)-[1,2,4]triazolo[4,3-a]pyridin-6-yloxy]-1,2,3,4-tetrahydro-naphthalen-1-yl}-urea], the IC50 in assay [1] and in assay [2] was under 10 nM in each case.

`Cc1ccc(-n2nc(C(C)(C)C)cc2NC(=O)N[C@H]2CC[C@@H](Oc3ccc4nnc(N5CCCC[C@H]5C)n4c3)c3ccccc32)cc1` [Example 82, 1-(5-tert-Butyl-2-p-tolyl-2H-pyrazol-3-yl)-3-{(1S,4R)-4-[3-((R)-2-methyl-piperidin-1-yl)-[1,2,4]triazolo[4,3-a]pyridin-6-yloxy]-1,2,3,4-tetrahydro-naphthalen-1-yl}-urea]: the half-inhibitory concentration (IC50) in assay [1] and in assay [2] was under 10 nM throughout.

On to `Cc1ccc(-n2nc(C(C)(C)C)cc2NC(=O)N[C@H]2CC[C@@H](Oc3ccc4nnc([C@H]5COCCN5C)n4c3)c3ccccc32)cc1` [Example 83, 1-(5-tert-Butyl-2-p-tolyl-2H-pyrazol-3-yl)-3-{(1S,4R)-4-[3-((S)-4-methyl-morpholin-3-yl)-[1,2,4]triazolo[4,3-a]pyridin-6-yloxy]-1,2,3,4-tetrahydro-naphthalen-1-yl}-urea, partial formate salt], for which the IC50 in assay [1] and in assay [2] was under 10 nM throughout.

Take `Cc1ccc(-n2nc(C(C)(C)C)cc2NC(=O)N[C@H]2CC[C@@H](Oc3ccc4nnc([C@@H]5CCCN5CCCO)n4c3)c3ccccc32)cc1` [Example 84, 1-(5-tert-Butyl-2-p-tolyl-2H-pyrazol-3-yl)-3-((1S,4R)-4-{3-[(S)-1-(3-hydroxy-propyl)-pyrrolidin-2-yl]-[1,2,4]triazolo[4,3-a]pyridin-6-yloxy}-1,2,3,4-tetrahydro-naphthalen-1-yl)-urea]: the IC50 in assay [1] and in assay [2] was under 10 nM in each case.

Turning to `Cc1ccc(-n2nc(C(C)(C)C)cc2NC(=O)N[C@H]2CC[C@@H](Oc3ccc4nnc([C@]5(CO)CCCN5C)n4c3)c3ccccc32)cc1` [Example 85, 1-(5-tert-Butyl-2-p-tolyl-2H-pyrazol-3-yl)-3-{(1S,4R)-4-[3-((S)-2-hydroxymethyl-1-methyl-pyrrolidin-2-yl)-[1,2,4]triazolo[4,3-a]pyridin-6-yloxy]-1,2,3,4-tetrahydro-naphthalen-1-yl}-urea], the IC50 in assay [1] and in assay [2] was under 10 nM each time.

Regarding `Cc1ccc(-n2nc(C(C)(C)C)cc2NC(=O)N[C@H]2CC[C@@H](Oc3ccc4nnc(C5CN(C)CCN5C)n4c3)c3ccccc32)cc1` (stereo partly drawn) [Example 86, 1-(5-tert-Butyl-2-p-tolyl-2H-pyrazol-3-yl)-3-{(1S,4R)-4-[3-(1,4-dimethyl-piperazin-2-yl)-[1,2,4]triazolo[4,3-a]pyridin-6-yloxy]-1,2,3,4-tetrahydro-naphthalen-1-yl}-urea formate salt], the IC50 in assay [1] and in assay [2] was under 10 nM throughout.

Turning to `Cc1ccc(-n2nc(C(C)(C)C)cc2NC(=O)N[C@H]2CC[C@@H](Oc3ccc4nnc([C@@H]5CC(C)(C)CN5C)n4c3)c3ccccc32)cc1` [Example 87, 1-(5-tert-Butyl-2-p-tolyl-2H-pyrazol-3-yl)-3-{(1S,4R)-4-[3-((S)-1,4,4-trimethyl-pyrrolidin-2-yl)-[1,2,4]triazolo[4,3a]pyridin-6-yloxy]-1,2,3,4-tetrahydro-naphthalen-1-yl}-urea], the IC50 in assay [1] and in assay [2] was under 10 nM throughout.
